Experiments:
endogenous fra-1 = assay: RT-PCR analysis of fra-1 transcripts in primary osteoblast cultures; format: cell-based, mice; conditions: wild-type osteoblasts, cultures 7 days after plating, not expressed without stimulation
Description: To further investigate the consequences of Fra-1 expression on osteoblasts, primary osteoblasts were prepared from the calvariae of neonatal (6-8 days old) mice and differentiated in vitro. Calvariae were sequentially digested for 10 minutes in α-MEM containing 0.1% collagenase and 0.2% dispase. Cells isolated by fractions 2 to 5 were combined as an osteoblastic cell population, expanded for 2 days in α-MEM with 10% FCS and replated at a density of 10^4 cells per cm^2. After reaching confluency, medium was supplemented with 5 mM β-glycerophosphate and 100 μg/ml ascorbic acid. There was no difference in the proliferation between wild-type and transgenic osteoblasts. The time course of differentiation was followed by ALP activity and by the deposition of mineralized extracelluar matrix. For ALP activity measurement, cells were washed with PBS and sonicated in 10 mM Tris-HCl buffer (pH 8.0). ALP activity in the lysate was measured using a calorimetric assay (Sigma). […] In transgenic cultures, areas of mineralized extracellular matrix monitored by alizarine red S staining were first observed at day 12, when no stained areas were present in wild-type cultures (FIG. 5b). […]
5′-GTACCGAGACTACGGGGAACCGG-3′ SEQ. […] Exogenous and endogenous fra-1 was detected in transgenic osteoblasts, irrespective of induction by phorbol myristate acetate (PMA) (FIG. 5c). […]

Fra-1 expression = conditions: substance known to induce Fra-1 expression (Yoshioka et al., 1995); cited from earlier work

| SMILES | expression of endogenous fra-1 upon stimulation (endogenous fra-1) | Fra-1 expression in cultured cells (Fra-1 expression) |
| --- | --- | --- |
| CCCCCCCCCCCCCC(=O)O[C@@H]1[C@@H](C)[C@@]2(O)[C@@H](C=C(CO)C[C@]3(O)C(=O)C(C)=C[C@@H]23)[C@@H]2C(C)(C)[C@]12OC(C)=O [PMA, phorbol myristate acetate] | induced |  |
| CC(C)(C)c1cc(O)ccc1O [tert-butylhydroquinone] |  | induce Fra-1 expression |

From patent publication US6653064B1, “Method for identifying compounds useful in the therapy of bone disorders” (Boehringer Ingelheim International GmbH, priority 1999, dated 2003)
